Patent US20110152313A1 (MACQUARIE UNIVERSITY, priority 2008, published 2011)

How the values were obtained:
Experiment in all cases: kinase binding screen (kinase-tagged T7 phage, qPCR), % Ctrl
[1] = target: CAMK2A (Homo sapiens, UniProt Q9UQM7)
Description: (§1) Percentage kinase inhibition at a set concentration was performed by methods well known in the prior art (Fabian, M. A. et al. Nat. Biotechnol. 2005, 23, 329; Karaman et al. (2008) Nat. Biotechnol. […], 26, 127). Briefly, kinase-tagged T7 phage strains were grown in parallel in 24-well blocks in an E. coli host derived from the BL21 strain. E. coli were grown to log-phase and infected with T7 phage from a frozen stock (multiplicity of infection=0.4) and incubated with shaking at 32° C. until lysis (90-150 minutes). The lysates were centrifuged (6,000×g) and filtered (0.2 μm) to remove cell debris. […] The liganded beads were blocked with excess biotin and washed with blocking buffer (SeaBlock (Pierce); 1% BSA, 0.05% Tween 20, 1 mM DTT) to remove unbound ligand and to reduce non-specific phage binding. […] Test compounds were prepared as 40× stocks in 100% DMSO and directly diluted into the assay. All reactions were performed in polypropylene 384-well plates in a final volume of 0.04 mL. […] The kinase concentration in the eluates was measured by qPCR.

[2] = target: IRAK1 (Homo sapiens, UniProt P51617)
Chain of IRAK1 (P51617 whole entry, species assumed): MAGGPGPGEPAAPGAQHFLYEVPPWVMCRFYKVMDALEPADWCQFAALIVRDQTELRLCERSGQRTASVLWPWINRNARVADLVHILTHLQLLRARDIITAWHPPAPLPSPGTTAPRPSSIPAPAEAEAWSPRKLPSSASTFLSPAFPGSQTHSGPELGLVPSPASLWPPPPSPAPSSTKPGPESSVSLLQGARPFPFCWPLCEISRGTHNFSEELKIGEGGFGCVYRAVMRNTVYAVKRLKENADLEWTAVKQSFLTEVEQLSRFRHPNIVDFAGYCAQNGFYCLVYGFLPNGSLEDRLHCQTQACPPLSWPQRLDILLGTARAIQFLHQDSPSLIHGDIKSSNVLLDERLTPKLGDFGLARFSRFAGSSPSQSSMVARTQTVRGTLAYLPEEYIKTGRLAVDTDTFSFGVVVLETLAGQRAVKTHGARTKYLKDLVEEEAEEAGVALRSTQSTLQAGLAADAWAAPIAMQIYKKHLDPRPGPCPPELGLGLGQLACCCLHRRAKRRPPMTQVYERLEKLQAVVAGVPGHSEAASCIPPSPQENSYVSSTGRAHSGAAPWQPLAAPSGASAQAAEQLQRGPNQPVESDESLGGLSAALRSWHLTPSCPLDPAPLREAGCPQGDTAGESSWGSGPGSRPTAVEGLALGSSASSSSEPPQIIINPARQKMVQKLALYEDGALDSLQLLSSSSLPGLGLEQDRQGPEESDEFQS
Description: as §1

[3] = target: T1, IRAK3 (Homo sapiens, UniProt Q9Y616)
T1 sequence (Q9Y616 1-596): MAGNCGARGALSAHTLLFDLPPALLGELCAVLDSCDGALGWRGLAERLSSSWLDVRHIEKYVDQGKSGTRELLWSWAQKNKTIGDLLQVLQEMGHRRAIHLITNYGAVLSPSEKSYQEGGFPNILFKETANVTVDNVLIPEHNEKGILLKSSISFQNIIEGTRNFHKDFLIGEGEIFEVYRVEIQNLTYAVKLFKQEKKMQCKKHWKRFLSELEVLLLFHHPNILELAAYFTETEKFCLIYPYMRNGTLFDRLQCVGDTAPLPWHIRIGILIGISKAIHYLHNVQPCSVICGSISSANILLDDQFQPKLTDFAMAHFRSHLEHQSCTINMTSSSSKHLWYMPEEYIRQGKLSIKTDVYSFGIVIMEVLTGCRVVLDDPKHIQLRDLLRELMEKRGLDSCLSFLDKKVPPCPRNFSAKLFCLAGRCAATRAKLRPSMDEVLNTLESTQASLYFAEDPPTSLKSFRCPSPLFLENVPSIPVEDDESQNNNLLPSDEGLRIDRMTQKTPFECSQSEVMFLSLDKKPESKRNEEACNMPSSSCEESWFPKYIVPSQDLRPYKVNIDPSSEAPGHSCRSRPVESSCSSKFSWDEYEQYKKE
Description: as §1

[4] = target: PIK4CB (Homo sapiens, UniProt Q9UBF8)
Chain of PIK4CB (Q9UBF8 whole entry, species assumed): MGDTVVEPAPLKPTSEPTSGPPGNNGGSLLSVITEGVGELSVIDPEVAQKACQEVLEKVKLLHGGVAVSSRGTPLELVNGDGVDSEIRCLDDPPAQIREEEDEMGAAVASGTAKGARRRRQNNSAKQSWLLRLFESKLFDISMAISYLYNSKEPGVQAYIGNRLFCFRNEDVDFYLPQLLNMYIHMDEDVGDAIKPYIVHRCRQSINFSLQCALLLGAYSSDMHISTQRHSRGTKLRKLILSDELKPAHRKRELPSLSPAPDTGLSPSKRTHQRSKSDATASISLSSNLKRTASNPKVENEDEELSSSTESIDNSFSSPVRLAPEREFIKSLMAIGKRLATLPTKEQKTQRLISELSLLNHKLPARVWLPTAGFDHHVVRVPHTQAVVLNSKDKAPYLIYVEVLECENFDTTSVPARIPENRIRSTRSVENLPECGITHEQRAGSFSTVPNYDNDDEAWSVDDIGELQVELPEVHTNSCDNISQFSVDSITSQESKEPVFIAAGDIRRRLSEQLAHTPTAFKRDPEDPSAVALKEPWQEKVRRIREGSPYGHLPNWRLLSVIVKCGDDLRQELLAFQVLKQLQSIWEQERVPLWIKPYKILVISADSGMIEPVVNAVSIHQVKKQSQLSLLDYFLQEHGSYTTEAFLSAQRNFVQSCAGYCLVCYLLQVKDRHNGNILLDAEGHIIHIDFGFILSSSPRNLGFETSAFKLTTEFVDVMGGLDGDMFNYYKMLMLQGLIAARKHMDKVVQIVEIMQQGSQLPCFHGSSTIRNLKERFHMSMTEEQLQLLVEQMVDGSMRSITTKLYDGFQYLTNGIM
Description: as §1

[5] = target: T2, PLK4 (Homo sapiens, UniProt O00444)
T2 sequence (O00444 1-970): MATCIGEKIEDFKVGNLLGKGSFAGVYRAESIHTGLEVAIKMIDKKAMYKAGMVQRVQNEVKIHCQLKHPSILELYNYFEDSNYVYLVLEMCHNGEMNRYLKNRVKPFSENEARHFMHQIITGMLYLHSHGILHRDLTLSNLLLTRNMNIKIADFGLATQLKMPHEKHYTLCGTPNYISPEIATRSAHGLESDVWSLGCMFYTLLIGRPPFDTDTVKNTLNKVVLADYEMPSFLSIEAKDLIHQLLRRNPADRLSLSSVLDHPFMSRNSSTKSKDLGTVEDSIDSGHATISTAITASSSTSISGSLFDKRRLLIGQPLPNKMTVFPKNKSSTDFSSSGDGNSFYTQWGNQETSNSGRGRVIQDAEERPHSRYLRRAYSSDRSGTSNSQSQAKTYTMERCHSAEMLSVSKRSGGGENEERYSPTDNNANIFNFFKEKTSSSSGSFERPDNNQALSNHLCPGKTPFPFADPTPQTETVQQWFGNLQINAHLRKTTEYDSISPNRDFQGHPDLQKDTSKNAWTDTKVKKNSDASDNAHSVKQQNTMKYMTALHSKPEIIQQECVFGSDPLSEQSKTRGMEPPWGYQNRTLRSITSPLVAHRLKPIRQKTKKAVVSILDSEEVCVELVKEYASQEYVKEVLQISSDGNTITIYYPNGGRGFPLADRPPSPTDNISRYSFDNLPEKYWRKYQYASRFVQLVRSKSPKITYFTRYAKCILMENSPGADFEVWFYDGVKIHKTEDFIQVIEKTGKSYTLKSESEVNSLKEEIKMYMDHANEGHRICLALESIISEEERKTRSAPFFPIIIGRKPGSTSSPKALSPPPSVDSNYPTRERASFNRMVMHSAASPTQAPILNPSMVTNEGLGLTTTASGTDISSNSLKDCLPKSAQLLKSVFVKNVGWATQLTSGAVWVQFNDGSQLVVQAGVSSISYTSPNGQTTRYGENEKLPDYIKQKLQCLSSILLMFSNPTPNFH
Description: as §1

[6] = target: TYK2(JH2domain-pseudokinase) (Homo sapiens, UniProt P29597)
Chain of TYK2(JH2domain-pseudokinase) (P29597 589-875 limits assumed, species assumed): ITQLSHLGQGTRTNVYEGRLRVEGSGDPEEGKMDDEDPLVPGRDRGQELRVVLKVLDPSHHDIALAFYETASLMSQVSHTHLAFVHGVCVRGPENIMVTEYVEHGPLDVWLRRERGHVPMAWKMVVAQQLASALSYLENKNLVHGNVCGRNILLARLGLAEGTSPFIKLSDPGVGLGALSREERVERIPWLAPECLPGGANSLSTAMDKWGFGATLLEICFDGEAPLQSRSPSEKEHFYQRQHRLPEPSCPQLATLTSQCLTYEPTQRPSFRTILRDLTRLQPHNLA
Description: as §1

Chain of CAMK2A (Q9UQM7 whole entry): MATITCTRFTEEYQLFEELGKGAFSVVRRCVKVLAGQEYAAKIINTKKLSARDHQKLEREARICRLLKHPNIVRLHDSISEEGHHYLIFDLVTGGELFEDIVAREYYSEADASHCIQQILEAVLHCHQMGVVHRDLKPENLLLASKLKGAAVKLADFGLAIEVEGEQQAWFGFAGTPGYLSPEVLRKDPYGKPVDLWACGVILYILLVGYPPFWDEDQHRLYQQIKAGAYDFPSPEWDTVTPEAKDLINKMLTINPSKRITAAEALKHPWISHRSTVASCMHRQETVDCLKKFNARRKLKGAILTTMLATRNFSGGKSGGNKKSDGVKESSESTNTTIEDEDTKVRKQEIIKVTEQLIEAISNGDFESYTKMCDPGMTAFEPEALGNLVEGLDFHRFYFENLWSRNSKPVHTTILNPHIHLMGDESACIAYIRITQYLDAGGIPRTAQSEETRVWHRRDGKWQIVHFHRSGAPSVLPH

remaining activity at 10 µM ([1]; 10 μM) [%]	remaining activity at 10 µM ([2]; 10 μM) [%]	remaining activity at 10 µM ([3]; 10 μM) [%]	remaining activity at 10 µM ([4]; 10 μM) [%]	remaining activity at 10 µM ([5]; 10 μM) [%]	remaining activity at 10 µM ([6]; 10 μM) [%]	Compound	remaining activity at 1 µM [1] [%]	remaining activity at 1 µM [2] [%]	remaining activity at 1 µM [3] [%]	remaining activity at 1 µM [4] [%]	remaining activity at 1 µM [5] [%]	remaining activity at 1 µM [6] [%]
97	35	51	50	65	2	Nc1nc2c(-c3cc(Br)c(Br)[nH]3)nccc2[nH]1 [Ageladine A, ageladine A, reference compound]	100	55	85	66	81	23
–	–	–	–	–	–	Nc1nc2c(-c3ccccn3)nccc2[nH]1 [drawing 35, 4-(pyrid-2-yl)-1H-imidazo[4,5-c]pyridin-2-amine]	100	52	88	88	55	41
–	–	–	–	–	–	Nc1nc2c(-c3cnc4ccccc4c3)nccc2[nH]1 [drawing 36, 4-(quinolin-3-yl)-1H-imidazo[4,5-c]pyridin-2-amine]	100	89	56	37	100	25
